# Source: article PMC8429728, “TNK1 is a ubiquitin-binding and 14-3-3-regulated kinase that can be targeted to block tumor growth” (Nature Communications, 2021)
# Where two headings read alike, the source gives them in different places.
# Legend:
# Assay in all cases: biochemical
# Parameters in all cases: Reaction Biology 371-kinase panel at Km ATP, per cent enzyme activity relative to DMSO, single dose in duplicate
# SNARK/NUAK2 = SNARK/NUAK2 (Homo sapiens, UniProt Q9H093); conditions: duplicate measurements, Km ATP; read-out: % Enzyme Activity (relative to DMSO controls) / TP-0005801 (0.3µM) / Data 1
# In short: (§1)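 In vitro selectivity panel: 371 kinases, inhibitor at 300 nM; % activity vs DMSO; IC50 by variable-slope sigmoidal fit, bottom = 0.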
# PKCepsilon = molecular target: T1, PKCepsilon (Homo sapiens, UniProt Q02156); conditions: duplicate measurements, Km ATP
# T1 construct: gene PRKCE
# In short: as §1
# CAMK1d = CAMK1d (Homo sapiens, UniProt Q8IU85); conditions: duplicate measurements, Km ATP
# Sequence of CAMK1d (Q8IU85 whole entry): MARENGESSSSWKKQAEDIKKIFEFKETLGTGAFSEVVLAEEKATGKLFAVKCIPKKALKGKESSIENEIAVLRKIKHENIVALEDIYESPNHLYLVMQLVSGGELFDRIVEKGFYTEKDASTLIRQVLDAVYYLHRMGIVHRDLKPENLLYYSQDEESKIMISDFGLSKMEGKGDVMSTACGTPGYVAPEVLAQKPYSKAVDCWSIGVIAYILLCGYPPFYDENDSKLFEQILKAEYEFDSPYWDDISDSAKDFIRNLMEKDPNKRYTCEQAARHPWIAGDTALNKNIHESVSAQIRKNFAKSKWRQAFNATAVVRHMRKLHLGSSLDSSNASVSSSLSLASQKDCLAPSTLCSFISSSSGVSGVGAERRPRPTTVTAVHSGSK
# In short: as §1
# EPHB1 = EPHB1 (Homo sapiens, UniProt P54762); conditions: duplicate measurements, Km ATP
# In short: as §1
# MRCKb/CDC42BPB = MRCKb/CDC42BPB (Homo sapiens, UniProt Q9Y5S2); conditions: duplicate measurements, Km ATP
# In short: as §1
# MEK3 = molecular target: T2, MEK3 (Homo sapiens, UniProt P46734); conditions: duplicate measurements, Km ATP
# T2 construct: gene MAP2K3
# T2 sequence (P46734 whole entry): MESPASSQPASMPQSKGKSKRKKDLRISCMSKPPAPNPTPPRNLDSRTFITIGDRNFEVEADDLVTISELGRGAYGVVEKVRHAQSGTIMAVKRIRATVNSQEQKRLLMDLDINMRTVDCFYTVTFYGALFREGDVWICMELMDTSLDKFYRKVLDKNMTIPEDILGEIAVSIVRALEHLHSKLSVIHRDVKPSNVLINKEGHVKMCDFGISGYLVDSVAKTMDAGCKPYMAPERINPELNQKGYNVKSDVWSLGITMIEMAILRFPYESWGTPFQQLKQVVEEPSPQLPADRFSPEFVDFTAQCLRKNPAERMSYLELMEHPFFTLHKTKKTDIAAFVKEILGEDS
# In short: as §1
# RAF1 = RAF1 (Homo sapiens, UniProt P04049); conditions: duplicate measurements, Km ATP
# Sequence of RAF1 (P04049 whole entry): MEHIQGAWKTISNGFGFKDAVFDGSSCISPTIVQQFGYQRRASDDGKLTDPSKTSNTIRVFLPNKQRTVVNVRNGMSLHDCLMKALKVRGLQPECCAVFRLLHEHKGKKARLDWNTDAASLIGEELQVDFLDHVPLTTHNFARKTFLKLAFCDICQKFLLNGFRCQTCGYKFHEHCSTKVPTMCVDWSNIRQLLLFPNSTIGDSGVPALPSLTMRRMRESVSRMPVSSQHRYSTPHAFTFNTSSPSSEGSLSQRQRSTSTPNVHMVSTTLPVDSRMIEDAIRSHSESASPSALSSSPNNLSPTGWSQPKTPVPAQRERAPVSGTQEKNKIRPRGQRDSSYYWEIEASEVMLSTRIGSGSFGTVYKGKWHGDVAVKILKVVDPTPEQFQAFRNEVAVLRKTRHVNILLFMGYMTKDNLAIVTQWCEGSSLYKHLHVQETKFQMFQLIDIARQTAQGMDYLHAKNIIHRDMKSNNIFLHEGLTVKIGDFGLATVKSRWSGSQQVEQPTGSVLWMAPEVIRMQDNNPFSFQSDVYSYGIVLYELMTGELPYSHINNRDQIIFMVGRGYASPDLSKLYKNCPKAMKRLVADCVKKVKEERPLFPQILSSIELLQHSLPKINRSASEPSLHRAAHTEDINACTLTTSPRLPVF
# In short: as §1
# ERK7/MAPK15 = ERK7/MAPK15 (Homo sapiens, UniProt Q8TD08); conditions: duplicate measurements, Km ATP
# Sequence of ERK7/MAPK15 (Q8TD08 whole entry): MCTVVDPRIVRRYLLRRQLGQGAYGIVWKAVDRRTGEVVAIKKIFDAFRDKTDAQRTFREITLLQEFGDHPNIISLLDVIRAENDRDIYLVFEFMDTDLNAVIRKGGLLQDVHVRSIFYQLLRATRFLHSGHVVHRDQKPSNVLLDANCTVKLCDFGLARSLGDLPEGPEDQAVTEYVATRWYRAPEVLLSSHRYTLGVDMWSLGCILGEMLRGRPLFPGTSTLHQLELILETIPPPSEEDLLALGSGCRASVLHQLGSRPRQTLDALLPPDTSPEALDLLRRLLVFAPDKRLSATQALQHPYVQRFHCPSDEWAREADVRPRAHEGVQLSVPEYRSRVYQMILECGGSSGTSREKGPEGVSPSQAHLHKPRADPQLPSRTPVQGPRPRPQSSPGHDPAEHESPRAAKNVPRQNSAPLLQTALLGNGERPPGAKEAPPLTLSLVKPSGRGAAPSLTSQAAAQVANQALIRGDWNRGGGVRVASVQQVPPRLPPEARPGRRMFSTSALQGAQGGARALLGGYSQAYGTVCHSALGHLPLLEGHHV
# In short: as §1
# IKKa/CHUK = IKKa/CHUK (Homo sapiens, UniProt O15111); conditions: duplicate measurements, Km ATP
# In short: as §1
# LATS2 = LATS2 (Homo sapiens, UniProt Q9NRM7); conditions: duplicate measurements, Km ATP
# In short: as §1
# PDGFRb = PDGFRb (Homo sapiens, UniProt P09619); conditions: duplicate measurements, Km ATP
# Sequence of PDGFRb (P09619 whole entry): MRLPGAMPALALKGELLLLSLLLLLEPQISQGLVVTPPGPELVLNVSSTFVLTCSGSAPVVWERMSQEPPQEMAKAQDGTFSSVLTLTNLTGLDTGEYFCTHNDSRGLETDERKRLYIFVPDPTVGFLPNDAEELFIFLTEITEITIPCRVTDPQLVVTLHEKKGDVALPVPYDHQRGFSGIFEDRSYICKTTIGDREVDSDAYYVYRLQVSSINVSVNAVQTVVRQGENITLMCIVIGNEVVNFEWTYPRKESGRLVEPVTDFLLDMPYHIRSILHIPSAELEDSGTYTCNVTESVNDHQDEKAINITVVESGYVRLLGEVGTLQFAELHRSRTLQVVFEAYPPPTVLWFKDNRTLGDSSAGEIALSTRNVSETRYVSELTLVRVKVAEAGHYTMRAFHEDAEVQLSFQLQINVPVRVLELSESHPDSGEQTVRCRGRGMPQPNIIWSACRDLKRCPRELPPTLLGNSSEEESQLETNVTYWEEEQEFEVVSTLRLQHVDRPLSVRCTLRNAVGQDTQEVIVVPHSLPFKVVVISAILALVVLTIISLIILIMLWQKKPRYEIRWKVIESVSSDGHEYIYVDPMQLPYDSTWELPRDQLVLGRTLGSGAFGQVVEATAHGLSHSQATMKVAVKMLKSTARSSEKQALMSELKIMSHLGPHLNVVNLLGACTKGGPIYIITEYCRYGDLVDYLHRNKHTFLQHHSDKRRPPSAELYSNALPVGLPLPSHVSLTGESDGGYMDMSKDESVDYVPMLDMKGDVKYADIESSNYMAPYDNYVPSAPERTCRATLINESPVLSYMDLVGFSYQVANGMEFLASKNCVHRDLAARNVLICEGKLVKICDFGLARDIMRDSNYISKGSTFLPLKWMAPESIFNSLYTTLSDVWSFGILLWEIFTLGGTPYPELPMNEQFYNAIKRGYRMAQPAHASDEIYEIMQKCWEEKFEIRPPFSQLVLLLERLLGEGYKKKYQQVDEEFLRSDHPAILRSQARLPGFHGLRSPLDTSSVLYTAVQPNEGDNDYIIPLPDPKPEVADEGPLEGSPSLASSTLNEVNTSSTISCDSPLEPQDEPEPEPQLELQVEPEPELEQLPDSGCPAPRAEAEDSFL
# In short: as §1
# IKKb/IKBKB = IKKb/IKBKB (Homo sapiens, UniProt O14920); conditions: duplicate measurements, Km ATP
# In short: as §1
# NEK1 = NEK1 (Homo sapiens, UniProt Q96PY6); conditions: duplicate measurements, Km ATP
# In short: as §1
# PLK4/SAK = PLK4/SAK (Homo sapiens, UniProt O00444); conditions: duplicate measurements, Km ATP
# Sequence of PLK4/SAK (O00444 whole entry): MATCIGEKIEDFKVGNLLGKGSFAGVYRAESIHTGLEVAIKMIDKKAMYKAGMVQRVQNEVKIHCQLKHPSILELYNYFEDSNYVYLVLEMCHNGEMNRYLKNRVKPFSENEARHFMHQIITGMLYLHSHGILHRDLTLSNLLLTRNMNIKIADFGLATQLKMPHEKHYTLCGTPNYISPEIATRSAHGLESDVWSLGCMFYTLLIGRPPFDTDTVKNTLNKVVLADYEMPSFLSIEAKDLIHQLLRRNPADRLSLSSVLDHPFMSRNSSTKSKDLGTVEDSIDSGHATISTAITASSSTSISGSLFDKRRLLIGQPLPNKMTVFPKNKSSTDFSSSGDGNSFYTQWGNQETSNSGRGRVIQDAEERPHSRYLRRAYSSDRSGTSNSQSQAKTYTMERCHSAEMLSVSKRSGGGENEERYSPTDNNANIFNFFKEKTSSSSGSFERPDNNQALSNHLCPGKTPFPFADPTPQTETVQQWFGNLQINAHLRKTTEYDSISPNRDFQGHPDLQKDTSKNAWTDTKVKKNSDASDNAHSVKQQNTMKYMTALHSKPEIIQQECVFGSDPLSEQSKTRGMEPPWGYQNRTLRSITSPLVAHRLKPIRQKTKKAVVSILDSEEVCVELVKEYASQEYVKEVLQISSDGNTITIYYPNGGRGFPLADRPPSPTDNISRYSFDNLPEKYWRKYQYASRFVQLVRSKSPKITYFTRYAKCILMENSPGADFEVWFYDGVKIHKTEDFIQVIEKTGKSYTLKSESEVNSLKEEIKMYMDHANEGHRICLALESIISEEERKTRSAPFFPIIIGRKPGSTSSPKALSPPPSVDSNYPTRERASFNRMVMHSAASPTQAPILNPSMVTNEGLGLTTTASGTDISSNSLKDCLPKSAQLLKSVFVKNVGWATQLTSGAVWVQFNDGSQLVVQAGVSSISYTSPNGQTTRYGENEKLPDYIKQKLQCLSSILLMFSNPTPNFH
# In short: as §1
# CAMK2a = CAMK2a (Homo sapiens, UniProt Q9UQM7); conditions: duplicate measurements, Km ATP
# Sequence of CAMK2a (Q9UQM7 whole entry): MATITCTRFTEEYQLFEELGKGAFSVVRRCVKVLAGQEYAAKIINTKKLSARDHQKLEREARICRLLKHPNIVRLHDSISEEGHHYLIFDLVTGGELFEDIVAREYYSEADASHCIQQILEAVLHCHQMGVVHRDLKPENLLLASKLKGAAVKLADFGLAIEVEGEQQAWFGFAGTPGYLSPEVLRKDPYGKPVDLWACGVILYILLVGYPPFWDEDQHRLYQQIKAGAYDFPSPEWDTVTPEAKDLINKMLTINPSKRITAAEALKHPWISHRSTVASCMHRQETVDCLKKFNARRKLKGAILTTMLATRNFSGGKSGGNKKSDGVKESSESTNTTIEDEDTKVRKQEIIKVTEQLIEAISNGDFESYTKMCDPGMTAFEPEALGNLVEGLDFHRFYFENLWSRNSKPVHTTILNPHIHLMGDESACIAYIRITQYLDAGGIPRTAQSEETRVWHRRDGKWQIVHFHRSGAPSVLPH
# In short: as §1
# CDK9/cyclin T1 = CDK9/cyclin T1 (Homo sapiens, UniProt P50750); conditions: duplicate measurements, Km ATP
# In short: as §1
# PKMYT1 = molecular target: T3, PKMYT1 (Homo sapiens, UniProt Q99640); conditions: duplicate measurements, Km ATP
# T3 sequence (Q99640 1-499): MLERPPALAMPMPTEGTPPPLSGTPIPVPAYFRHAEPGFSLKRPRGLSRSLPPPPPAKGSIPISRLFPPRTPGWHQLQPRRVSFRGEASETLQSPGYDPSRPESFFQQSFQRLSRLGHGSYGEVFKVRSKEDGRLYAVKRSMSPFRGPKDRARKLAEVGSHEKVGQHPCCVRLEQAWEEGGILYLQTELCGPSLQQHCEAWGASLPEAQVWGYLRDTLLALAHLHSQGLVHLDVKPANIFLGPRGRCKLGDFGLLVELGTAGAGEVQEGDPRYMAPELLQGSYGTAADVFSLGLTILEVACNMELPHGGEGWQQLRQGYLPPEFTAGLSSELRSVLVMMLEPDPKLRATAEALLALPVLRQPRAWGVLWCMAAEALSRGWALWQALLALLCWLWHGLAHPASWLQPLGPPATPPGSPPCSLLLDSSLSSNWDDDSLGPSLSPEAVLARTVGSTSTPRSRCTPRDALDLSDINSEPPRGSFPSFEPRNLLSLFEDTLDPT
# In short: as §1
# [1] = read-out: % Enzyme Activity (relative to DMSO controls) / TP-0005801 (0.3µM) / Data 1
# [2] = read-out: % Enzyme Activity (relative to DMSO controls) / TP-0005801 (0.3µM) / Data 2
structure (smiles),measurement,setting,value
COc1cc(N2CCN(C)CC2)c(C)cc1Nc1ncc(Br)c(Nc2cccnc2N(C)C)n1 [TP-5801],remaining activity at 0.3 µM,SNARK/NUAK2,30.2%
same,remaining activity at 0.3 µM,PKCepsilon; [1],93.6%
same,remaining activity at 0.3 µM,PKCepsilon; [2],93.3%
same,remaining activity at 0.3 µM,CAMK1d; [1],75.7%
same,remaining activity at 0.3 µM,CAMK1d; [2],73.7%
same,remaining activity at 0.3 µM,EPHB1; [1],90.7%
same,remaining activity at 0.3 µM,EPHB1; [2],89%
same,remaining activity at 0.3 µM,MRCKb/CDC42BPB; [1],99.2%
same,remaining activity at 0.3 µM,MRCKb/CDC42BPB; [2],98%
same,remaining activity at 0.3 µM,MEK3; [1],174%
same,remaining activity at 0.3 µM,MEK3; [2],173%
same,remaining activity at 0.3 µM,RAF1; [1],90.8%
same,remaining activity at 0.3 µM,RAF1; [2],90.2%
same,remaining activity at 0.3 µM,ERK7/MAPK15; [1],97.2%
same,remaining activity at 0.3 µM,ERK7/MAPK15; [2],96.4%
same,remaining activity at 0.3 µM,IKKa/CHUK; [1],99.5%
same,remaining activity at 0.3 µM,IKKa/CHUK; [2],94.3%
same,remaining activity at 0.3 µM,LATS2; [1],95.8%
same,remaining activity at 0.3 µM,LATS2; [2],92.4%
same,remaining activity at 0.3 µM,PDGFRb; [1],64.4%
same,remaining activity at 0.3 µM,PDGFRb; [2],64%
same,remaining activity at 0.3 µM,IKKb/IKBKB; [1],104%
same,remaining activity at 0.3 µM,IKKb/IKBKB; [2],102%
same,remaining activity at 0.3 µM,NEK1; [1],105%
same,remaining activity at 0.3 µM,NEK1; [2],104%
same,remaining activity at 0.3 µM,PLK4/SAK; [1],74.8%
same,remaining activity at 0.3 µM,PLK4/SAK; [2],72.8%
same,remaining activity at 0.3 µM,CAMK2a; [1],8.85%
same,remaining activity at 0.3 µM,CAMK2a; [2],8.25%
same,remaining activity at 0.3 µM,CDK9/cyclin T1; [1],128%
same,remaining activity at 0.3 µM,CDK9/cyclin T1; [2],115%
same,remaining activity at 0.3 µM,PKMYT1; [1],62.9%
same,remaining activity at 0.3 µM,PKMYT1; [2],62.8%
